From patent publication US20120225061A1, “TETRASUBSTITUTED CYCLOHEXYL COMPOUNDS AS KINASE INHIBITORS” (priority 2011, published 2012) come the findings set out here.

Test [1] deals with KMS11 (human myeloma cell line). Nature of the test: Cell proliferation assay (CellTiter-Glo) in KMS11 cells. Format: cell-based. Particulars: KMS-11, 72 h, read-out: KMS11-luc EC50. The essentials:
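KMS11 cells at 2000 per well in IMDM/10% FBS were exposed to compound for 3 days. Viability was read by CellTiter-Glo luminescence.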

Test [2] deals with T1, Pim1 kinase (Homo sapiens, UniProt P11309). As to the kind of experiment: KinaseGlo Pim1 ATP depletion assay. In kind it is biochemical. Particulars: Table 4, 2.5 nM PIM1, 20 μM ATP, 40 μM BAD peptide. The procedure: The activity of PIM1 is measured using a luciferase-luciferin based ATP detection reagent to quantify ATP depletion resulting from kinase-catalyzed phosphoryl transfer to a peptide substrate. Compounds to be tested are dissolved in 100% DMSO and directly distributed into white 384-well plates at 0.5 μl per well. […] After 15 minutes, 10 μl of 40 μM ATP in assay buffer is added. […] The reaction is performed until approximately 50% of the ATP is depleted, then stopped with the addition of 20 μl KinaseGlo Plus (Promega Corporation) solution. The stopped reaction is incubated for 10 minutes and the remaining ATP detected via luminescence on the Victor2 (Perkin Elmer).
T1 sequence (P11309 whole entry): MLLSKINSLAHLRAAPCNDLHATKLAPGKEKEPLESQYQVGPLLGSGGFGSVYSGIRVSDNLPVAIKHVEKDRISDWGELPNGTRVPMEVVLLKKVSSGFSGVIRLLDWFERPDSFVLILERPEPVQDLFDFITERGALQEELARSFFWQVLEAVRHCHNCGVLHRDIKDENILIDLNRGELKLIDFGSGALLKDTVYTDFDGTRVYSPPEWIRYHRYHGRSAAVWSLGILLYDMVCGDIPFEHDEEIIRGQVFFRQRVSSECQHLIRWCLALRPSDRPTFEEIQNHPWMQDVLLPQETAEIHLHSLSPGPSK

For test [3], the target named is T2, Pim2 kinase (Homo sapiens, UniProt Q9P1W9). Nature of the test: KinaseGlo Pim2 ATP depletion assay. Format: biochemical. Particulars: Table 4, 5 nM PIM2, 4 μM ATP, 10 μM BAD peptide. The protocol:
(§1) The activity of PIM2 is measured using a luciferase-luciferin based ATP detection reagent to quantify ATP depletion resulting from kinase-catalyzed phosphoryl transfer to a peptide substrate. Compounds to be tested are dissolved in 100% DMSO and directly distributed into white 384-well plates at 0.5 μl per well. […] After 15 minutes, 10 μl of 8 μM ATP in assay buffer is added. Final assay concentrations are 5 nM PIM2, 4 μM ATP, 10 μM BAD peptide and 2.5% DMSO. The reaction is performed until approximately 50% of the ATP is depleted, then stopped with the addition of 20 μl KinaseGlo Plus (Promega Corporation) solution. The stopped reaction is incubated for 10 minutes and the remaining ATP detected via luminescence on the Victor2 (Perkin Elmer).

Test [4] deals with T3, Pim3 kinase (Homo sapiens, UniProt Q86V86). Nature of the test: KinaseGlo Pim3 ATP depletion assay. Format: biochemical. Particulars: Table 4, 40 μM ATP, 100 μM BAD peptide. The procedure:
as §1, with “of PIM3” for “of PIM2”, “of 80” for “of 8”, “nM PIM1, 40” for “nM PIM2, 4”, “ATP, 100” for “ATP, 10”, “stopped by” for “stopped with”

Test [5] addresses T2, Pim2 kinase. Nature of the test: Pim2 AlphaScreen assay (high ATP).
Description: The activity of Pim 1, Pim 2, & Pim 3 is measured using a homogeneous bead based system quantifying the amount of phosphorylated peptide substrate resulting from kinase-catalyzed phosphoryl transfer to a peptide substrate. Compounds to be tested are dissolved in 100% DMSO and directly distributed to a white 384-well plate at 0.25 μl per well. […] This is followed by the addition of 5 μl/well of Pim 1, Pim 2 or Pim 3 kinase in assay buffer (concentrations described below). Final assay concentrations (described below) are in 2.5% DMSO. The reactions are performed for ˜2 hours, then stopped by the addition of 10 μl of 0.75 μg/ml anti-phospho Ser/Thr antibody (Cell Signaling), 10 μg/ml Protein A AlphaScreen beads (Perkin Elmer), and 10 μg/ml streptavidin coated AlphaScreen beads in stop/detection buffer (50 mM EDTA, 95 mM Tris, pH=7.5, 0.01% Tween-20). The stopped reactions are incubated overnight in the dark. The phosphorylated peptide is detected via an oxygen anion initiated chemiluminescence/fluorescence cascade using the Envision plate reader (Perkin Elmer).
Test [6] has as its target T3, Pim3 kinase. Nature of the test: Pim3 AlphaScreen assay (high ATP).
Test [7] concerns the target T1, Pim1 kinase. Nature of the test: Pim1 AlphaScreen assay (high ATP).

SMILES strings stand for the structures. Where two headings read alike, the source gives them in different places.

T2 sequence (Q9P1W9 whole entry): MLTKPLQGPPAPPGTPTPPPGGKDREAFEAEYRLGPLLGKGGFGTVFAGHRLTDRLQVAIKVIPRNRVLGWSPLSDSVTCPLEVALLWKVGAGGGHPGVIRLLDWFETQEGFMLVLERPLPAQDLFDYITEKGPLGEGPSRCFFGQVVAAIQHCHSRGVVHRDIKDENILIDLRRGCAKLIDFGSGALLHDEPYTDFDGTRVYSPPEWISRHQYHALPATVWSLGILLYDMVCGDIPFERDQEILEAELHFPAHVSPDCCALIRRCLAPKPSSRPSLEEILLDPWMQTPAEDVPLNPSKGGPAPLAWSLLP

In the case of `C[C@H]1C[C@@H](c2ccncc2NC(=O)c2ccc(F)c(-c3c(F)cccc3F)n2)C[C@@H](O)C1(O)CO` (stereo in doubt) [Example 59, 6-(2,6-difluorophenyl)-N-(4-((1R,3R,4R,5S)-3,4-dihydroxy-4-(hydroxymethyl)-5-methylcyclohexyl)pyridin-3-yl)-5-fluoropicolinamide], the EC50 in test [1] (Table 4, 3 days) turned out to be 1070 nM. The values for the IC50 on Pim1 kinase [2], on Pim2 kinase [3] and on Pim3 kinase [4] were 0.3 nM, 1.5 nM and 1.3 nM, respectively.

Regarding `CC[C@]1(O)[C@H](O)C[C@H](c2ccncc2NC(=O)c2nc(-c3c(F)cccc3F)ccc2N)C[C@@H]1C` [Example 32, 3-amino-6-(2,6-difluorophenyl)-N-(4-((1R,3R,4R,5S)-4-ethyl-3,4-dihydroxy-5-methylcyclohexyl)pyridin-3-yl) picolinamide], the EC50 in test [1] (Table 4, 3 days) came to 880 nM. In addition, the half-inhibitory concentration (IC50) against Pim1 kinase [2] worked out at 0.4 nM; against Pim2 kinase [3], 1 nM; at Pim3 kinase [4], 1.4 nM.

Turning to `CC[C@]1(O)[C@H](O)C[C@H](c2ccncc2NC(=O)c2nc(-c3c(F)cccc3F)c(F)cc2N)C[C@@H]1C` [Example 33, 3-amino-6-(2,6-difluorophenyl)-N-(4-((1R,3R,4R,5S)-4-ethyl-3,4-dihydroxy-5-methylcyclohexyl)pyridin-3-yl)-5-fluoropicolinamide], in test [1] (Table 4, 3 days), the EC50 came to 580 nM. In addition, the IC50 on Pim1 kinase [2] turned out to be 0.5 nM; against Pim2 kinase [3], 1.1 nM; on Pim3 kinase [4] it was 1.8 nM.

For the compound `CC[C@]1(O)[C@H](O)C[C@H](c2ccncc2NC(=O)c2nc(-c3c(F)cccc3F)ncc2N)C[C@@H]1C` [Example 34, 5-amino-2-(2,6-difluorophenyl)-N-(4-((1R,3R,4R,5S)-4-ethyl-3,4-dihydroxy-5-methylcyclohexyl)pyridin-3-yl) pyrimidine-4-carboxamide], the EC50 in test [1] (Table 4, 3 days) amounted to 610 nM. Moreover, the IC50 against Pim1 kinase [2] is 0.6 nM; at Pim2 kinase [3] it was 1.3 nM; on Pim3 kinase [4] it was 1.7 nM.

For `C[C@H]1C[C@@H](c2ccncc2NC(=O)c2cncc(-c3ccccc3)n2)C[C@@H](O)[C@]1(C)O` [Example 36, N-(4-((1R,3R,4R,5S)-3,4-dihydroxy-4,5-dimethylcyclohexyl)pyridin-3-yl)-6-phenylpyrazine-2-carboxamide], the results for the IC50 on Pim1 kinase [2], against Pim2 kinase [3] and against Pim3 kinase [4] were 525 nM, 5410 nM and 307 nM, respectively.

Take `C[C@H]1C[C@@H](c2ccncc2NC(=O)c2nc(-c3ccccc3)cnc2N)C[C@@H](O)[C@]1(C)O` [Example 37, 3-amino-N-(4-((1R,3R,4R,5S)-3,4-dihydroxy-4,5-dimethylcyclohexyl)pyridin-3-yl)-6-phenylpyrazine-2-carboxamide]: the IC50 is 1.3 nM at Pim1 kinase [2], 4.9 nM on Pim2 kinase [3] and 2.5 nM on Pim3 kinase [4].

`CC[C@]1(O)[C@H](O)C[C@H](c2ccncc2NC(=O)c2ccc(F)c(-c3c(F)cccc3F)n2)C[C@@H]1C` [Example 41, 6-(2,6-difluorophenyl)-N-(4-((1R,3R,4R,5S)-4-ethyl-3,4-dihydroxy-5-methylcyclohexyl)pyridin-3-yl)-5-fluoropicolinamide]: the IC50 came to 0.9 nM on Pim1 kinase [2], 2.3 nM against Pim2 kinase [3] and 2.9 nM on Pim3 kinase [4].

For the compound `CCOc1cccc(-c2ccc(N)c(C(=O)Nc3cnccc3[C@H]3C[C@@H](O)[C@](C)(O)[C@@H](C)C3)n2)n1` [Example 127, 5-amino-N-(4-((1R,3R,4R,5S)-3,4-dihydroxy-4,5-dimethylcyclohexyl)pyridin-3-yl)-6′-ethoxy-2,2′-bipyridine-6-carboxamide], the EC50 in test [1] (Table 4, 3 days) amounted to 1390 nM; in test [1] (Table 5, 3 days), 1390 nM. Moreover, the IC50 stood at 9180 nM at Pim2 kinase [5], 619 nM against Pim3 kinase [6], 20 nM against Pim2 kinase [3] and 11.9 nM against Pim1 kinase [7].

Take `C[C@H]1C[C@@H](c2ccncc2NC(=O)c2nc(-c3nc(F)c(F)cc3F)ccc2N)C[C@@H](O)[C@]1(C)O` [Example 128, 5-amino-N-(4-((1R,3R,4R,5S)-3,4-dihydroxy-4,5-dimethylcyclohexyl)pyridin-3-yl)-3′,5′,6′-trifluoro-2,2′-bipyridine-6-carboxamide]: the EC50 in test [1] (Table 4, 3 days) was ≥ 10000 nM; in test [1] (Table 5, 3 days) it was > 10000 nM. Further, the IC50 came out at 2310 nM against Pim2 kinase [5], 1070 nM at Pim3 kinase [6], 9.7 nM on Pim2 kinase [3] and 29 nM on Pim1 kinase [7].

As to `C[C@H]1C[C@@H](c2ccncc2NC(=O)c2nc(-c3ccc(F)c(F)c3)ccc2N)C[C@@H](O)[C@]1(C)O` [Example 129, 3-amino-6-(3,4-difluorophenyl)-N-(4-((1R,3R,4R,5S)-3,4-dihydroxy-4,5-dimethylcyclohexyl)pyridin-3-yl)picolinamide], the EC50 in test [1] (Table 4, 3 days) was 3300 nM; in test [1] (Table 5, 3 days), 3300 nM. Moreover, the IC50 against Pim2 kinase [5] came out at 8160 nM; on Pim3 kinase [6], 1710 nM; against Pim2 kinase [3], 20.1 nM; against Pim1 kinase [7] it was 57.7 nM.

Regarding `C[C@H]1C[C@@H](c2ccncc2NC(=O)c2nc(-c3nc(Cl)c(C#N)cc3F)ccc2N)C[C@@H](O)[C@]1(C)O` [Example 131, 5-amino-6′-chloro-5′-cyano-N-(4-((1R,3R,4R,5S)-3,4-dihydroxy-4,5-dimethylcyclohexyl)pyridin-3-yl)-3′-fluoro-2,2′-bipyridine-6-carboxamide], the EC50 in test [1] (Table 4, 3 days) was ≥ 10000 nM; in test [1] (Table 5, 3 days), > 10000 nM. Besides, the IC50 amounted to 17000 nM against Pim2 kinase [5], 5090 nM against Pim3 kinase [6], 51.6 nM on Pim2 kinase [3] and 146 nM on Pim1 kinase [7].

With `C[C@H]1C[C@@H](c2ccncc2NC(=O)c2nc(-c3cc(F)ccn3)ccc2N)C[C@@H](O)[C@]1(C)O` [Example 132, 5-amino-N-(4-((1R,3R,4R,5S)-3,4-dihydroxy-4,5-dimethylcyclohexyl)pyridin-3-yl)-4′-fluoro-2,2′-bipyridine-6-carboxamide], the EC50 is 7140 nM in test [1] (Table 4, 3 days) and 7140 nM in test [1] (Table 5, 3 days). Further, the IC50 against Pim2 kinase [5] is > 25000 nM; against Pim3 kinase [6] it was > 25000 nM; against Pim2 kinase [3], 162 nM; at Pim1 kinase [7], 2530 nM.

As to `CC(=O)c1ccc(F)c(-c2ccc(N)c(C(=O)Nc3cnccc3[C@H]3C[C@@H](O)[C@](C)(O)[C@@H](C)C3)n2)n1` [Example 133, 6′-acetyl-5-amino-N-(4-((1R,3R,4R,5S)-3,4-dihydroxy-4,5-dimethylcyclohexyl)pyridin-3-yl)-3′-fluoro-2,2′-bipyridine-6-carboxamide], the EC50 in test [1] (Table 4, 3 days) turned out to be 5370 nM; in test [1] (Table 5, 3 days) it was 5370 nM. Moreover, the IC50 turned out to be 2630 nM on Pim2 kinase [5], 182 nM on Pim3 kinase [6], 5.4 nM on Pim2 kinase [3] and 7.19 nM against Pim1 kinase [7].

Take `C[C@H]1C[C@@H](c2ccncc2NC(=O)c2nc(-c3ccc(F)cn3)ccc2N)C[C@@H](O)[C@]1(C)O` [Example 134, 5-amino-N-(4-((1R,3R,4R,5S)-3,4-dihydroxy-4,5-dimethylcyclohexyl)pyridin-3-yl)-5′-fluoro-2,2′-bipyridine-6-carboxamide]: the EC50 in test [1] (Table 4, 3 days) was 4150 nM; in test [1] (Table 5, 3 days) it was 4150 nM. Also, the IC50 was found to be 14300 nM on Pim2 kinase [5], 3390 nM on Pim3 kinase [6], 50.7 nM against Pim2 kinase [3] and 78.7 nM against Pim1 kinase [7].

Turning to `C[C@H]1C[C@@H](c2ccncc2NC(=O)c2nc(-c3cccc(F)n3)ccc2N)C[C@@H](O)[C@]1(C)O` [Example 135, 5-amino-N-(4-((1R,3R,4R,5S)-3,4-dihydroxy-4,5-dimethylcyclohexyl)pyridin-3-yl)-6′-fluoro-2,2′-bipyridine-6-carboxamide], the EC50 in test [1] (Table 4, 3 days) is ≥ 10000 nM; in test [1] (Table 5, 3 days), > 10000 nM. For the same compound, the IC50 came to 5690 nM on Pim2 kinase [5], 1130 nM against Pim3 kinase [6], 14.2 nM against Pim2 kinase [3] and 33.5 nM against Pim1 kinase [7].
